Results taken from paper PMC10975012, “The Active Glucuronide Metabolite of the Brain Protectant IMM-H004 with Poor Blood–Brain Barrier Permeability Demonstrates a High Partition in the Rat Brain via Multiple Mechanisms” (Pharmaceutics, 2024).
Like-named read-outs stand apart in the source and are kept apart here.

Tested on: P-gp
Experiment: Bidirectional transport in MDCKⅡ-MDR1 cell monolayers
Assay type: in vitro ADME
Conditions: dog
Protocol: To further validate the effect of P-gp on the transport of IMM-H004G or IMM-H004, MDCKⅡ-MDR1 cells were seeded onto polycarbonate membrane transwell inserts in 24-well plates and used for transport studies after 5 days or when the effective transepithelial electric resistance (TEER) values exceeded 300 Ω·cm^2. The monolayers were initially rinsed twice with HBSS. Subsequently, IMM-H004G or IMM-H004 (10 µmol/L) was added to either the apical or basolateral side of the monolayer. Aliquots of 50 µL were collected from the opposite compartment at various time points, covering a maximum duration of 120 min. Digoxin (5 μmol/L) was used as a positive substrate, while PSC833 (5 µmol/L) was used as an inhibitor in MDCKⅡ-MDR1 cells. The apparent permeability value (Papp) was calculated using the following equation:(2) Papp=dQ/dt/AC0 where dQ/dt is the slope of the cumulative transport amount over time during the study period. A is the base area of the insert, and C0 is the initial addition concentration.
The efflux ratio (ER) was calculated as follows:ER = Papp(B−A)/Papp(A−B) (3)

efflux ratio at 120 min (MDCK-MDR1, with PSC833 5 µmol/L, MDCKⅡ-MDR1, PSC833 5 µmol/L, read-out: efflux ratio (ER) in the presence of PSC833): 1.41
efflux ratio at 120 min (MDCK-MDR1, MDCKⅡ-MDR1, no inhibitor, IMM-H004 10 µmol/L, digoxin 5 μmol/L, read-out: efflux ratio (ER)): 21.1
SMILES: C[C@H]1O[C@@H](O[C@H]2[C@@H](O)C[C@H](O[C@H]3[C@@H](O)C[C@H](O[C@H]4CC[C@@]5(C)[C@H](CC[C@@H]6[C@@H]5C[C@@H](O)[C@]5(C)[C@@H](C7=CC(=O)OC7)CC[C@]65O)C4)O[C@@H]3C)O[C@@H]2C)C[C@H](O)[C@@H]1O [digoxin, reference compound]
